Test results reported in patent US11617366B2, “Solvents for agricultural applications and pesticide formulations” (Dow Global Technologies LLC, priority 2017, dated 2023).
Read-outs that look alike come from different tables or passages of the source.

Assay: Solubility of pesticide powders in solvents, 2% stepwise increments
Settings: for Dissolving power: compared with comparative solvents DMSO and DMAA810, for each of the active ingredients evaluated
Description: The solubility of various pesticides in these solvents or solvent components are evaluated.

[1] = solvent DEAC (N,N-diethyl acetamide), last concentration before powder not dissolved, 2% steps, no more than 2% lower than actual solubility
[2] = solvent DMAA810, last concentration before powder not dissolved, 2% steps, no more than 2% lower than actual solubility
[3] = solvent DMPA (N,N-dimethyl propanamide), last concentration before powder not dissolved, 2% steps, no more than 2% lower than actual solubility
[4] = solvent DMSO, last concentration before powder not dissolved, 2% steps, no more than 2% lower than actual solubility

Compound: Cc1c(COC(=O)[C@@H]2[C@H](/C=C(\Cl)C(F)(F)F)C2(C)C)cccc1-c1ccccc1 (racemic) [Bifenthrin]
- Solubility in DEAC [1]: 50 weight %
- Solubility in DMAA810 [2]: 33 weight %
- Solubility in DMPA [3]: 47 weight %
- Solubility in DMSO [4]: 7 weight %

Compound: CC(C)N1C(=O)N(c2ccccc2)CS/C1=N\C(C)(C)C [Buprofezin]
- Solubility in DEAC: 31 weight %
- Solubility in DMAA810: 22 weight %
- Solubility in DMPA: 33 weight %
- Solubility in DMSO: 1 weight %

Compound: CCN(CC)C(C)=O [DEAC, N,N-diethyl acetamide]
- Dissolving power: stronger

Compound: CCC(=O)N(C)C [DMPA, N,N-dimethyl propanamide]
- Dissolving power: stronger

Compound: CCCCC(C#N)(Cn1cncn1)c1ccc(Cl)cc1 (stereo not drawn) [Myclobutanil]
- Solubility in DEAC [1]: 57 weight %
- Solubility in DMAA810 [2]: 42 weight %
- Solubility in DMPA [3]: 58 weight %
- Solubility in DMSO [4]: 57 weight %

Compound: COC(=O)N(OC)c1ccccc1COc1ccn(-c2ccc(Cl)cc2)n1 [Pyraclostrobin]
- Solubility in DEAC [1]: 54 weight %
- Solubility in DMAA810 [2]: 42 weight %
- Solubility in DMPA [3]: 63 weight %
- Solubility in DMSO [4]: 40 weight %

Compound: CC(C)(C)C(O)(CCc1ccc(Cl)cc1)Cn1cncn1 (stereo not drawn) [Tebuconazole]
- Solubility in DEAC: 51 weight %
- Solubility in DMPA: 54 weight %
- Solubility in DMAA810 [2]: 37 weight %
- Solubility in DMSO [4]: 32 weight %

Compound: CC(C)(C)C(=O)C(Oc1ccc(Cl)cc1)n1cncn1 (stereo not drawn) [Triazolone]
- Solubility in DEAC [1]: 54 weight %
- Solubility in DMAA810 [2]: 39 weight %
- Solubility in DMPA [3]: 58 weight %
- Solubility in DMSO [4]: 43 weight %

Compound: Abamectin
- Solubility in DEAC [1]: 50 weight %
- Solubility in DMAA810 [2]: 38 weight %
- Solubility in DMPA [3]: 51 weight %
- Solubility in DMSO [4]: 21 weight %
